Measured values: article PMC11092803, “Heme allocation in eukaryotic cells relies on mitochondrial heme export through FLVCR1b to cytosolic GAPDH” (Research Square, 2024)

Molecular target: T1, IDO1 (Homo sapiens, UniProt P14902)
T1 construct: full-length with FLAG tag, expressed in HEK293T cells; immunoprecipitated for 14C-heme count
Assay: L-kynurenine in culture medium, p-dimethylaminobenzaldehyde colorimetry at […] nm
Format: cell-based
Details: intact HEK293T cells expressing IDO1; L-Trp 2 mM, with or without δ-ALA and ferric citrate, 5 h

T1 sequence (P14902 whole entry): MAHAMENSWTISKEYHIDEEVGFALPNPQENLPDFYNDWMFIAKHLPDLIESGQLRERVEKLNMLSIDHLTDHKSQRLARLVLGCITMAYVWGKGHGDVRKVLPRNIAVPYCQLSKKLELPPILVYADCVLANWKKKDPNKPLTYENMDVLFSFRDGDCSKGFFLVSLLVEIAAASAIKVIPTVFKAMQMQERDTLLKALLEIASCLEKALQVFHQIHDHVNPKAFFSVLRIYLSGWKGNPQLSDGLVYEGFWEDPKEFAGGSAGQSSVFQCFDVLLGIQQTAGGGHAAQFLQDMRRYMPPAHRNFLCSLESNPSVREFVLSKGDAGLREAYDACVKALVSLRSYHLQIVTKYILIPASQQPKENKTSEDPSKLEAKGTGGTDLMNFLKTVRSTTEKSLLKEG

N[C@@H](Cc1c[nH]c2ccccc12)C(=O)O [L-Trp]
L-kynurenine in culture medium, p-dimethylaminobenzaldehyde colorimetry at 492 n: IDO1 activity was determined by colorimetric measure of the accumulated L-Kynurenine product
